What all share (type): cell-based
In one assay the test system is E. coli DH5α. The experiment in a line: Antibacterial activity: MIC and growth curve against E. coli DH5α in 96-well plate. As to conditions: minimal inhibitory concentration against E. coli DH5α; 96-well plate, 5×10^5 CFU/mL, 37° C., judged after 8 h. An outline of the steps:
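Log-phase bacteria (OD600 ~0.5) resuspended in LB at 5×10^5 CFU/mL, exposed to recombinant protein at 50, 25, 12.5 μg/mL final in triplicate, 37 °C shaking at 175 rpm. OD600 read every 30 min; MIC is lowest concentration showing no growth.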

Another assay concerns E. coli BL21. Nature of the assay: MIC against Gram-negative bacteria: E. coli BL21. The settings on record: 5×10^5 CFU/mL; for MIC (μg/mL) E. coli BL21: 10 h cultivation at 37° C.; for MIC against E. coli BL21: 96-well plate, 37° C., 10 h. Put shortly: (§1)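 Antibacterial activity of purified human EGF domain proteins: two-fold concentration series, triplicate wells, LB broth, 5×10^5 CFU/mL bacteria, 37° C shaking incubation. The lowest concentration without growth defines the MIC.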

For a further assay, the system named is Pseudomonas aeruginosa. Nature of the assay: MIC against Gram-negative bacteria: Pseudomonas aeruginosa. The settings on record: 5×10^5 CFU/mL; for MIC (μg/mL) P. aeruginosa: 10 h cultivation at 37° C.; for MIC against P. aeruginosa: 96-well plate, 37° C., 10 h. Put shortly: as §1
The next assay concerns Klebsiella pneumonia. The experiment in a line: MIC against Gram-negative bacteria: Klebsiella pneumonia. As to conditions: 5×10^5 CFU/mL; for MIC (μg/mL) K. pneumonia: 10 h cultivation at 37° C.; for MIC against K. pneumonia: 96-well plate, 37° C., 10 h. An outline of the steps: as §1
The subject of a further assay is Enterobacter cloacae. The experiment in a line: MIC against Gram-negative bacteria: Enterobacter cloacae. As to conditions: 5×10^5 CFU/mL; for MIC (μg/mL) E. cloacae: 10 h cultivation at 37° C.; for MIC against E. cloacae: 96-well plate, 37° C., 10 h. An outline of the steps:
as §1

The next assay relates to Aeromonas hydrophila. Nature of the assay: MIC against Gram-negative bacteria: Aeromonas hydrophila. The settings on record: 5×10^5 CFU/mL; for MIC (μg/mL) A. hydrophila: 10 h cultivation at 37° C.; for MIC against A. hydrophila: 96-well plate, 37° C., 10 h. Put shortly:
as §1

The subject of a further assay is Citrobacter diversus. The experiment in a line: MIC against Gram-negative bacteria: Citrobacter diversus. The settings on record: 5×10^5 CFU/mL; for MIC (μg/mL) C. diversus: 10 h cultivation at 37° C.; for MIC against C. diversus: 96-well plate, 37° C., 10 h. Put shortly: as §1
The next assay concerns Moraxella catarrhalis. Nature of the assay: MIC against Gram-negative bacteria: Moraxella catarrhalis. As to conditions: 5×10^5 CFU/mL; for MIC (μg/mL) M. catarrhalis: 10 h cultivation at 37° C.; for MIC against M. catarrhalis: 96-well plate, 37° C., 10 h. Put shortly:
as §1

The subject of a further assay is Proteus mirabilis. The experiment in a line: MIC against Gram-negative bacteria: Proteus mirabilis. As to conditions: 5×10^5 CFU/mL; for MIC (μg/mL) P. mirabilis: 10 h cultivation at 37° C.; for MIC against P. mirabilis: 96-well plate, 37° C., 10 h. Put shortly:
as §1

In another assay the test system is Proteus vulgaris. Nature of the assay: MIC against Gram-negative bacteria: Proteus vulgaris. The settings on record: 5×10^5 CFU/mL; for MIC (μg/mL) P. vulgaris: 10 h cultivation at 37° C.; for MIC against P. vulgaris: 96-well plate, 37° C., 10 h. Put shortly:
as §1

The next assay has as its system Serratia marcescens. The experiment in a line: MIC against Gram-negative bacteria: Serratia marcescens. The settings on record: 5×10^5 CFU/mL; for MIC (μg/mL) S. marcescens: 10 h cultivation at 37° C.; for MIC against S. marcescens: 96-well plate, 37° C., 10 h. An outline of the steps:
as §1

Regarding “PRT829 (FGPSCTLHCDCGGGADCDPVSGQCHCVDGYMGPTCR; listed as Homo sapiens)”, in the assay on E. coli DH5α, the MIC (in general, the lowest concentration found to suppress growth) worked out at 50 µg/mL. The “MIC (μg/mL) E. coli BL21” value against E. coli BL21 (E. coli BL21) came to 25 µg/mL. Further, the “MIC (μg/mL) P. aeruginosa” value in the assay on Pseudomonas aeruginosa worked out at 12.5 µg/mL. In addition, the “MIC (μg/mL) K. pneumonia” value with Klebsiella pneumonia was found to be 25 µg/mL. Further, the “MIC (μg/mL) E. cloacae” value against Enterobacter cloacae was found to be 50 µg/mL. Further, in the assay with Aeromonas hydrophila, the “MIC (μg/mL) A. hydrophila” value is 25 µg/mL. For the same substance, in the assay with Citrobacter diversus, the “MIC (μg/mL) C. diversus” value turned out to be 12.5 µg/mL. For the same substance, the “MIC (μg/mL) M. catarrhalis” value against Moraxella catarrhalis was determined as 25 µg/mL. The “MIC (μg/mL) P. mirabilis” value against Proteus mirabilis is 50 µg/mL. Further, the “MIC (μg/mL) P. vulgaris” value against Proteus vulgaris is 12.5 µg/mL. The “MIC (μg/mL) S. marcescens” value against Serratia marcescens was 12.5 µg/mL.
The substance “PRT780 (EYSSCSRHPCQNGGTCINGRTSFTCACRHPFTGDNCT; listed as Homo sapiens)” showed an MIC against E. coli DH5α of 12.5 µg/mL. Besides, the “MIC (μg/mL) E. coli BL21” value in the assay on E. coli BL21 (E. coli BL21) came to 50 µg/mL. In addition, the “MIC (μg/mL) P. aeruginosa” value against Pseudomonas aeruginosa amounted to 12.5 µg/mL. In addition, the “MIC (μg/mL) K. pneumonia” value with Klebsiella pneumonia came out at 50 µg/mL. Also, the “MIC (μg/mL) E. cloacae” value in the assay on Enterobacter cloacae is 12.5 µg/mL. Besides, the “MIC (μg/mL) A. hydrophila” value against Aeromonas hydrophila was found to be 50 µg/mL. For the same substance, the “MIC (μg/mL) C. diversus” value in the assay with Citrobacter diversus came to 25 µg/mL. In the assay with Moraxella catarrhalis, the “MIC (μg/mL) M. catarrhalis” value amounted to 12.5 µg/mL. Further, in the assay on Proteus mirabilis, the “MIC (μg/mL) P. mirabilis” value worked out at 25 µg/mL. Also, the “MIC (μg/mL) P. vulgaris” value against Proteus vulgaris is 50 µg/mL. Besides, in the assay on Serratia marcescens, the “MIC (μg/mL) S. marcescens” value turned out to be 12.5 µg/mL.
“PRT828 (HGAGCQGLCWCQHGAPCDPISGRCLCPAGFHGHFCE; listed as Homo sapiens)”: the MIC in the assay with E. coli DH5α is 12.5 µg/mL. The “MIC (μg/mL) E. coli BL21” value in the assay on E. coli BL21 (E. coli BL21) turned out to be 50 µg/mL. The “MIC (μg/mL) P. aeruginosa” value in the assay on Pseudomonas aeruginosa was determined as 12.5 µg/mL. For the same substance, the “MIC (μg/mL) K. pneumonia” value with Klebsiella pneumonia amounted to 50 µg/mL. In the assay with Enterobacter cloacae, the “MIC (μg/mL) E. cloacae” value is 12.5 µg/mL. The “MIC (μg/mL) A. hydrophila” value with Aeromonas hydrophila worked out at 50 µg/mL. In the assay on Citrobacter diversus, the “MIC (μg/mL) C. diversus” value amounted to 12.5 µg/mL. Also, in the assay on Moraxella catarrhalis, the “MIC (μg/mL) M. catarrhalis” value was determined as 50 µg/mL. In addition, the “MIC (μg/mL) P. mirabilis” value with Proteus mirabilis amounted to 25 µg/mL. In addition, the “MIC (μg/mL) P. vulgaris” value in the assay on Proteus vulgaris amounted to 12.5 µg/mL. Besides, in the assay with Serratia marcescens, the “MIC (μg/mL) S. marcescens” value is 25 µg/mL.
The substance “PRT1250 (FGARCDRYCQCFRGRCHPVDGTCACEPGYRGKYCR; listed as Homo sapiens)” came in with an MIC in the assay on E. coli DH5α of 12.5 µg/mL. In the assay on E. coli BL21 (E. coli BL21), the “MIC against E. coli BL21” value was found to be 50 µg/mL. Moreover, the “MIC against P. aeruginosa” value against Pseudomonas aeruginosa (Pseudomonas aeruginosa) came out at 12.5 µg/mL. In addition, the “MIC against K. pneumonia” value against Klebsiella pneumonia (Klebsiella pneumonia) was 25 µg/mL. Also, the “MIC against E. cloacae” value in the assay with Enterobacter cloacae (Enterobacter cloacae) amounted to 50 µg/mL. For the same substance, the “MIC against A. hydrophila” value against Aeromonas hydrophila (Aeromonas hydrophila) was 12.5 µg/mL. In the assay on Citrobacter diversus (Citrobacter diversus), the “MIC against C. diversus” value was found to be 50 µg/mL. In addition, in the assay with Moraxella catarrhalis (Moraxella catarrhalis), the “MIC against M. catarrhalis” value came out at 12.5 µg/mL. Besides, the “MIC against P. mirabilis” value against Proteus mirabilis (Proteus mirabilis) was 25 µg/mL. In the assay on Proteus vulgaris (Proteus vulgaris), the “MIC against P. vulgaris” value is 50 µg/mL. In addition, the “MIC against S. marcescens” value against Serratia marcescens (Serratia marcescens) amounted to 25 µg/mL.
In turn, “PRT531 (CDCNLEGVLPEICDAHGRCLCRPGVEGPRCDTCRSGFYSFPICQA; listed as Homo sapiens)” returned an MIC in the assay with E. coli DH5α of 50 µg/mL. Further, in the assay with E. coli BL21, the “MIC against E. coli BL21” value is 25 µg/mL. For the same substance, the “MIC against P. aeruginosa” value in the assay on Pseudomonas aeruginosa was determined as 12.5 µg/mL. Moreover, the “MIC against K. pneumonia” value against Klebsiella pneumonia was 25 µg/mL. The “MIC against E. cloacae” value against Enterobacter cloacae was found to be 50 µg/mL. Also, the “MIC against A. hydrophila” value with Aeromonas hydrophila came out at 12.5 µg/mL. The “MIC against C. diversus” value with Citrobacter diversus came to 50 µg/mL. Besides, the “MIC against M. catarrhalis” value in the assay with Moraxella catarrhalis stood at 12.5 µg/mL. Moreover, in the assay on Proteus mirabilis, the “MIC against P. mirabilis” value was found to be 50 µg/mL. Moreover, the “MIC against P. vulgaris” value against Proteus vulgaris came to 12.5 µg/mL. In addition, the “MIC against S. marcescens” value in the assay on Serratia marcescens worked out at 50 µg/mL.

The values are drawn from US9833497B2, “Human originated EGF domain proteins and use of the same” (CHENGDU SOURCEBIO LIMITED-LIABILITY COMPANY, priority 2013, dated 2017).
